Test results published in patent publication US8597640B2, “Over-the-counter vitamin/nutriceutical formulation that provides neuroprotection and maintains or improves cognitive performance in alzheimer's disease and normal aging” (University of Massachusetts Lowell, priority 2007, dated 2013).
Entries after “also recorded” stand apart in the source; their conditions may differ.

What was measured:
[1] = test system: presenilin-1 (PS-1) expression; test: PS-1 expression by RT-PCR in murine brain; format: in vivo, mouse; conditions: normal and ApoE−/− mice, deficient diet + SAM 100 mg/kg diet, 1 month
Description: Adult (9-12 months of age) C57B/6 mice that either express (“normal”) or lack murine ApoE (ApoE−/− mice) received a diet (“AIN-76”; Purina/Mother Hubbard, Inc.) either lacking folate and vitamin E (defined as the “deficient diet”) or supplemented with folic acid (4 mg/kg), and vitamin E (50 IU/kg total diet wet weight) (defined as the “complete diet”). The deficient diet was also supplemented in all cases with iron ([…] total diet) as a pro-oxidant (Mihalick et al., (2004) Neuromol. Med. 4:197-202; Shea and Rogers, (2002) Mol. Brain. Res. 108:1-6). Additional groups of mice maintained on each diet received SAM for the entire month (100 mg/kg diet; Chan et al., (2007) in press; Tchantchou et al., (2005) J. Alzheimers Dis. 7:135-138). […]
To analyze PS-1 expression, total mRNA was extracted from the above homogenate using an RNA isolation kit and stored at −20° C. as described (Chan and Shea, (2006) J. Alzheimers Dis. 9:399-405). Transcription of murine PS-1 was analyzed using a set of primers 5′-[…]-3′ (SEQ ID NO: 1) and 5′-[…]-3′ (SEQ ID NO: 2) respectively, which yielded a product of 557 base pairs (bp) of the murine PS-1 gene. […] Gels were visualized under UV using a Gel Doc 2000 machine from BioRad and analyzed using Quantity One software. […]

Abeta = Abeta levels in murine brain by immunoblot; format: in vivo, mouse; conditions: normal and ApoE−/− mice
Description: (§1) Adult (9-12 months of age) C57B/6 mice that either express (“normal”) or lack murine ApoE (ApoE−/− mice) received a diet (“AIN-76”; Purina/Mother Hubbard, Inc.) either lacking folate and vitamin E (defined as the “deficient diet”) or supplemented with folic acid (4 mg/kg), and vitamin E (50 IU/kg total diet wet weight) (defined as the “complete diet”). The deficient diet was also supplemented in all cases with iron ([…] total diet) as a pro-oxidant (Mihalick et al., (2004) Neuromol. Med. 4:197-202; Shea and Rogers, (2002) Mol. Brain. Res. 108:1-6). Additional groups of mice maintained on each diet received SAM for the entire month (100 mg/kg diet; Chan et al., (2007) in press; Tchantchou et al., (2005) J. Alzheimers Dis. 7:135-138). Following 1 month of maintenance on these diets, mice were sacrificed by cervical dislocation, and the frontal portion of the brain (encompassing cortex and hippocampus) was immediately removed.
A portion (40-50 mg) of the above cortical/hippocampal sample was homogenized with 4 volumes of Tris-saline (50 mM Tris HCl, pH 7.4, 150 mM NaCl containing 1 mM EGTA, 0.5 mM diisopropyl fluorophosphate, 0.5 mM phenylmethylsulfonyl fluoride, 1 μg/ml N-p-tosyl-L-lysine chloromethylketone, 0.1 μg/ml pepstatin, 1 μg/ml antipain, and 1 μg/ml leupeptin). The homogenate was centrifuged at […] for 50 minutes at 4° C. […]

[2] = test system: mice lacking one or both murine MTHFR alleles; conditions: SAM supplementation; Chan et al. (2007) in press; cited from earlier work
gamma secretase = test: Gamma secretase activity in brain homogenates (fluorescent kit); format: in vivo, mouse
Description: as §1
Gamma secretase activity was quantified by fluorescent spectroscopy using a gamma secretase activity kit according to the manufacturer's instructions (R&D Systems, Minneapolis, MN), using the APP peptide GVVIATVIV (SEQ ID NO: 5) conjugated to the reporter molecules EDANS and DABCYL and measuring the cleavage-dependent release of signal at 495 nm.

normal C57B/6 mice = conditions: SAM administered in isolation; prior studies (Chan et al. 2007); cited from earlier work
[3] = 12 months, Aisen et al. 2003; cited from earlier work
[4] = 12 months, Aisen et al. 2003; cited from earlier work; remark: listed apart in the source
[5] = normal mice, deficient diet + SAM

Row | SMILES | effect on deficient-diet-induced increase in PS-1 expression [1] | effect on folate-deprivation-induced increase in Abeta levels (Abeta; folate-deficient diet + SAM) | Abeta levels, SAM in the presence of folate (Abeta; folate-supplemented diet + SAM) | cognitive performance [2] | effect on gamma-secretase activity (gamma secretase; ApoE−/− mice, SAM supplementation, FIG. 22) | gamma-secretase activity, less than levels on complete diet (gamma secretase; ApoE−/− mice, deficient diet + SAM) | effect on deficient-diet-induced increase in gamma-secretase activity (gamma secretase; [5]) | gamma-secretase activity relative to complete diet (gamma secretase; [5]) | performance of normal mice (normal C57B/6 mice) | performance on the NPI [3] | decline in ADCS-ADL [4]
1 | C[S+](CC[C@H](N)C(=O)O)C[C@H]1O[C@@H](n2cnc3c(N)ncnc32)[C@H](O)[C@@H]1O (stereo partly shown) [SAM, S-adenosyl methionine] | prevented these increases; also recorded: prevented or attenuated these increases | prevented these increases; also recorded: alleviated these increases | did not alter values obtained with folate alone | improved cognitive performance | statistically (p<0.02) reduced secretase activity | approx. 40% | attenuated by half; also recorded: reduced secretase activity in normal mice (not statistically significant) | approx. 35% | did not improve the performance of normal mice | – | –
2 | COc1ccc2cc([C@H](C)C(=O)O)ccc2c1 [naproxen] | – | – | – | – | – | – | – | – | – | Neither naproxen nor rofecoxib statistically improved performance on the NPI | nor prevented decline in ADCS-ADL
3 | CS(=O)(=O)c1ccc(C2=C(c3ccccc3)C(=O)OC2)cc1 [rofecoxib] | – | – | – | – | – | – | – | – | – | Neither naproxen nor rofecoxib statistically improved performance on the NPI | nor prevented decline in ADCS-ADL
